Here are results for 20 compounds from patent US8916573B2, “Quinazoline-2,4-dione derivatives” (Actelion Pharmaceuticals Ltd., priority 2011, dated 2014).

Values after ≈ are worked out from the molar mass of the structure shown.

In the test the test system is S. aureus 29213. The experiment in a line: Bacterial growth minimal inhibitory concentrations (microdilution, cation-adjusted Mueller-Hinton Broth, CLSI M7-A7). It counts as cell-based. The following applies: Staphylococcus aureus, 29213; microdilution in cation-adjusted Mueller-Hinton Broth. The method, then:
Bacterial Growth Minimal Inhibitory Concentrations: Minimal inhibitory concentrations (MICs; mg/l) were determined in cation-adjusted MuellerHinton Broth by a microdilution method following the description given in “Methods for Dilution Antimicrobial Susceptibility Tests for Bacteria that Grow Aerobically”, Approved standard, 7th ed., Clinical and Laboratory Standards Institute (CLSI) Document M7-A7, Wayne, Pa., USA, 2006. Typical antibacterial test results are given in Table 1 hereafter (MIC in mg/l).
Background: Dilution methods test growth across graded concentrations, often in twofold steps.
Turning to `CCCn1c(=O)n(CCC[C@@H]2CN(c3ccc4c(c3)NC(=O)CS4)C(=O)O2)c(=O)c2ccccc21` [Example 4, 3-{3-[(R)-2-oxo-3-(3-oxo-3,4-dihydro-2H-benzo[1,4]-thiazin-6-yl)-oxazolidin-5-yl]-propyl}-1-propyl-1H-quinazoline-2,4-dione], the MIC – broadly, the lowest concentration found to suppress growth – is ≤ 0.25 µg/mL.
With `O=C1CSc2ccc(N3C[C@@H](CCCn4c(=O)[nH]c5ccc(Cl)cc5c4=O)OC3=O)cc2N1` [Example 25, 6-chloro-3-{3-[(R)-2-oxo-3-(3-oxo-3,4-dihydro-2H-benzo[1,4]-thiazin-6-yl)-oxazolidin-5-yl]-propyl}-1H-quinazoline-2,4-dione], 0.063 µg/mL (≈ 0.129 µM) was the least that counted as inhibitory (MIC).
In turn, `O=C1CSc2ccc(N3C[C@@H](CNCCn4c(=O)[nH]c5ccccc5c4=O)OC3=O)nc2N1` [Example 53, 3-(2-{[(R)-2-oxo-3-(3-oxo-3,4-dihydro-2H-pyrido[3,2-b][1,4]thiazin-6-yl)-oxazolidin-5-ylmethyl]-amino}-ethyl)-1H-quinazoline-2,4-dione] yielded an MIC of 0.5 µg/mL (≈ 1.07 µM).
Regarding `O=C1CSc2ccc(N3C[C@H](CCCn4c(=O)[nH]c5cccc(Cl)c5c4=O)OC3=O)nc2N1` [Example 19, 5-chloro-3-{3-[(S)-2-oxo-3-(3-oxo-3,4-dihydro-2H-pyrido[3,2-b][1,4]thiazin-6-yl)-oxazolidin-5-yl]-propyl}-1H-quinazoline-2,4-dione], the MIC was ≤ 0.016 µg/mL.
`Cn1c(=O)n(CCC[C@H]2CN(c3ccc4c(c3)NC(=O)CS4)C(=O)O2)c(=O)c2cccc(Cl)c21` [Example 31, 8-chloro-1-methyl-3-{3-[(S)-2-oxo-3-(3-oxo-3,4-dihydro-2H-benzo[1,4]thiazin-6-yl)-oxazolidin-5-yl]-propyl}-1H-quinazoline-2,4-dione]: the MIC is ≤ 0.016 µg/mL.
To `O=C1CSc2ccc(N3C[C@H](CCCn4c(=O)[nH]c5c(Cl)cccc5c4=O)OC3=O)nc2N1` [Example 22, 8-chloro-3-{3-[(S)-2-oxo-3-(3-oxo-3,4-dihydro-2H-pyrido[3,2-b][1,4]thiazin-6-yl)-oxazolidin-5-yl]-propyl}-1H-quinazoline-2,4-dione] belongs ≤ 0.016 µg/mL.
To `Cc1cccc2[nH]c(=O)n(CCC[C@@H]3CN(c4ccc5c(c4)NC(=O)CS5)C(=O)O3)c(=O)c12` [Example 5, 5-methyl-3-{3-[(R)-2-oxo-3-(3-oxo-3,4-dihydro-2H-benzo[1,4]-thiazin-6-yl)-oxazolidin-5-yl]-propyl}-1H-quinazoline-2,4-dione] belongs ≤ 0.016 µg/mL; to `Cc1cccc2c(=O)n(CCNC[C@@H]3CN(c4ccc5c(c4)NC(=O)CS5)C(=O)O3)c(=O)[nH]c12` [Example 60, 8-methyl-3-(2-{[(R)-2-oxo-3-(3-oxo-3,4-dihydro-2H-benzo[1,4]thiazin-6-yl)-oxazolidin-5-ylmethyl]-amino}-ethyl)-1H-quinazoline-2,4-dione], 0.25 µg/mL (≈ 0.519 µM).
`Cc1cccc2[nH]c(=O)n(CCC[C@@H]3CN(c4ccc5c(n4)NC(=O)CO5)C(=O)O3)c(=O)c12` [Example 9, 5-methyl-3-{3-[(R)-2-oxo-3-(3-oxo-3,4-dihydro-2H-pyrido[3,2-b][1,4]oxazin-6-yl)-oxazolidin-5-yl]-propyl}-1H-quinazoline-2,4-dione] registered an MIC of 0.031 µg/mL (≈ 0.0687 µM). This MIC is about 8.1-fold lower than that of the compound before.
As for `Cc1cccc2[nH]c(=O)n(CCC[C@H]3CN(c4ccc5c(n4)NC(=O)CS5)C(=O)O3)c(=O)c12` [Example 8, 5-methyl-3-{3-[(S)-2-oxo-3-(3-oxo-3,4-dihydro-2H-pyrido[3,2-b][1,4]thiazin-6-yl)-oxazolidin-5-yl]-propyl}-1H-quinazoline-2,4-dione], the minimum inhibitory concentration (MIC) was ≤ 0.016 µg/mL.
In turn, `O=C1CSc2ccc(N3C[C@@H](CCCn4c(=O)[nH]c5ccc(F)cc5c4=O)OC3=O)cc2N1` [Example 26, 6-fluoro-3-{3-[(R)-2-oxo-3-(3-oxo-3,4-dihydro-2H-benzo[1,4]thiazin-6-yl)-oxazolidin-5-yl]-propyl}-1H-quinazoline-2,4-dione] had an MIC of 0.031 µg/mL (≈ 0.0659 µM).
`COc1cc2[nH]c(=O)n(CCC[C@@H]3CN(c4ccc5c(c4)NC(=O)CS5)C(=O)O3)c(=O)c2cc1OC` [Example 39, 6,7-dimethoxy-3-{3-[(R)-2-oxo-3-(3-oxo-3,4-dihydro-2H-benzo[1,4]thiazin-6-yl)-oxazolidin-5-yl]-propyl}-1H-quinazoline-2,4-dione] gave an MIC of 0.25 µg/mL (≈ 0.488 µM).
The value for `O=C1CSc2ccc(N3C[C@@H](CCCn4c(=O)[nH]c5cc(Cl)ccc5c4=O)OC3=O)cc2N1` [Example 27, 7-chloro-3-{3-[(R)-2-oxo-3-(3-oxo-3,4-dihydro-2H-benzo[1,4]-thiazin-6-yl)-oxazolidin-5-yl]-propyl}-1H-quinazoline-2,4-dione] was 0.063 µg/mL (≈ 0.129 µM); that for `Cc1cccc2[nH]c(=O)n(CCNC[C@@H]3CN(c4ccc5c(c4)NC(=O)CS5)C(=O)O3)c(=O)c12` [Example 59, 5-methyl-3-(2-{[(R)-2-oxo-3-(3-oxo-3,4-dihydro-2H-benzo[1,4]thiazin-6-yl)-oxazolidin-5-ylmethyl]-amino}-ethyl)-1H-quinazoline-2,4-dione] was 0.25 µg/mL (≈ 0.519 µM).
With `Cn1c(=O)n(CCC[C@@H]2CN(c3ccc4c(c3)NC(=O)CS4)C(=O)O2)c(=O)c2ccc(Br)cc21` [Example 46, 7-bromo-1-methyl-3-{3-[(R)-2-oxo-3-(3-oxo-3,4-dihydro-2H-benzo[1,4]thiazin-6-yl)-oxazolidin-5-yl]-propyl}-1H-quinazoline-2,4-dione], the MIC is ≤ 0.016 µg/mL.
To `Cc1ccc2c(=O)n(CCC[C@@H]3CN(c4ccc5c(c4)NC(=O)CS5)C(=O)O3)c(=O)[nH]c2c1` [Example 11, 7-methyl-3-{3-[(R)-2-oxo-3-(3-oxo-3,4-dihydro-2H-benzo[1,4]-thiazin-6-yl)-oxazolidin-5-yl]-propyl}-1H-quinazoline-2,4-dione] belongs 0.063 µg/mL (≈ 0.135 µM); to `Cc1cccc2c1c(=O)n(CCNC[C@@H]1CN(c3ccc4c(c3)NC(=O)CS4)C(=O)O1)c(=O)n2C` [Example 57, 1,5-dimethyl-3-(2-{[(R)-2-oxo-3-(3-oxo-3,4-dihydro-2H-benzo[1,4]thiazin-6-yl)-oxazolidin-5-ylmethyl]-amino}-ethyl)-1H-quinazoline-2,4-dione], ≤ 0.016 µg/mL.
Turning to `O=C1CSc2ccc(N3C[C@@H](CCCn4c(=O)[nH]c5c(F)cccc5c4=O)OC3=O)cc2N1` [Example 32, 8-fluoro-3-{3-[(R)-2-oxo-3-(3-oxo-3,4-dihydro-2H-benzo[1,4]thiazin-6-yl)-oxazolidin-5-yl]-propyl}-1H-quinazoline-2,4-dione], the MIC came to 0.031 µg/mL (≈ 0.0659 µM).
On to `COc1ccc2c(=O)n(CCC[C@H]3CN(c4ccc5c(c4)NC(=O)CS5)C(=O)O3)c(=O)[nH]c2c1` [Example 35, 7-methoxy-3-{3-[(S)-2-oxo-3-(3-oxo-3,4-dihydro-2H-benzo[1,4]-thiazin-6-yl)-oxazolidin-5-yl]-propyl}-1H-quinazoline-2,4-dione], for which it took 0.125 µg/mL (≈ 0.259 µM) to inhibit growth (MIC).
`Cn1c(=O)n(CC(O)CC[C@@H]2CN(c3ccc4c(n3)NC(=O)CS4)C(=O)O2)c(=O)c2ccccc21` (mixture of isomers) [Example 50, 3-{(RS)-2-hydroxy-4-[(R)-2-oxo-3-(3-oxo-3,4-dihydro-2H-pyrido[3,2-b][1,4]thiazin-6-yl)-oxazolidin-5-yl]-butyl}-1-methyl-1H-quinazoline-2,4-dione] gave an MIC of 0.125 µg/mL.
